Laboratory results reported in US4301140A, “Radiopharmaceutical method for monitoring kidneys” (G. D. Searle & Co., priority 1979, dated 1981).

How the values were obtained:
[1] = cited from earlier work
[2] = Scintiscan (Anger camera) monitoring of distribution of radioactivity after intravenous administration, rabbit; format: in vivo, New Zealand rabbit; design: key: -: no significant measured radioactivity; relative amounts of measured radioactivity ranging from (-) for no significant measured radioactivity to (+++) for the maximum measured radioactivity; relative amounts of measured radioactivity ranging from (-) for no significant measured radioactivity to (+++) for the maximum measured radioactivity; +++: the maximum measured radioactivity; settings: i.v., 1.21 mg, 0.81 mCi
Method: Approximately 0.2 milliliter of a solution of the complex formed from technetium-99m and 0.95 milligram of fructose 1,6-diphosphate and prepared generally as described in Example 1 and having a radioactivity of 0.5 millicurie was administered intravenously to an anesthetized New Zealand rabbit weighing about 3 kilograms. Approximately the same volume of a solution of the complex formed from technetium-99m and 1.21 milligrams of fructose 6-phosphate prepared generally as described in Example 2, having a radioactivity of 0.81 millicurie was similarly administered to a second New Zealand rabbit of about the same weight. The injections were made using a 1 milliliter tuberculin syringe connected to a #23 gauge indwelling cannula inserted into a marginal ear vein. Each rabbit was positioned in a full ventral position for 2.5 to 3 hours during which time the disposition of the radioactivity in the rabbit in this position was monitored using a computer-augmented Anger camera. The measurements and results are discussed hereinafter, and the results of the test using the fructose 1,6-diphosphate and fructose 6-phosphate complexes are presented in Tables 1 and 2, respectively.
(§1) At various times after the aforesaid administrations of solutions of complexes of this invention, which times are indicated in Tables 1-6, scintiscan photographs and video tape recordings were taken of the aforesaid rabbit, beagles and monkeys using the Anger camera. This instrument was a Pho-Gamma LFOV Scintillation Camera System, Model 6413, fitted with a Model 3137 Vari-Back Camera, a Model 3122 Data-Store/Playback System and a Model 27851 Analog-Digital/Digital-AnalogConverter (all Searle Radiographics, Inc.). This entire system was interfaced with a Xerox 530 computer (Xerox Corp., Minneapolis, Minn.) which was programmed to record net counts per unit of time and percents of total counts in individual organs and to plot organ radioactivity versus time. The camera was operated with a 140 KeV high resolution Type II converging collimator using a 20 percent technetium-99m window. Generally 400,000 counts were accumulated on each scintiscan using both video tape and self-developing film, with the animal in the full ventral position. The photographs represented a visualization of the anatomic relationships in the kidneys.
(§2) Tables 1-6 contain semi-quantitative representations of the distribution of radioactivity in the organs of the test animals determined from the scintiscans. In Tables 1-6, (--), (+), (++) and (+++) indicate relative amounts of measured radioactivity ranging from (-) for no significant measured radioactivity to (+++) for the maximum measured radioactivity.

[3] = Scintiscan (Anger camera) monitoring of distribution of radioactivity after intravenous administration, female beagle dog; format: in vivo; design: key: -: no significant measured radioactivity; relative amounts of measured radioactivity ranging from (-) for no significant measured radioactivity to (+++) for the maximum measured radioactivity; relative amounts of measured radioactivity ranging from (-) for no significant measured radioactivity to (+++) for the maximum measured radioactivity; +++: the maximum measured radioactivity; settings: i.v., 7.3 mg, 0.84 mCi
Method: (§3) This procedure used with the rabbits was repeated with additional anesthetized animals: two female beagle dogs and two female rhesus monkeys. In these cases, however, unlike the cases of the rabbits, the complex solutions, again prepared generally as described in Examples 1 and 2, were injected intravenously in a saphenous vein of the dogs and monkeys.
Three milliliters of a solution of the complex formed from technetium-99m and 9.4 milligrams of fructose 1,6-diphosphate and having a radioactivity of 0.5 mCi were administered to one such dog weighing 11.7 kilograms. In addition, 1.6 milliliters of a solution of the complex formed from technetium-99m and 7.3 milligrams of fructose 6-phosphate having a radioactivity of 0.84 mCi were administered to a second such dog weighing 10.5 kilograms.
as §1, §2

[4] = Scintiscan (Anger camera) monitoring of distribution of radioactivity after intravenous administration, rhesus monkey; format: in vivo; design: key: -: no significant measured radioactivity; relative amounts of measured radioactivity ranging from (-) for no significant measured radioactivity to (+++) for the maximum measured radioactivity; relative amounts of measured radioactivity ranging from (-) for no significant measured radioactivity to (+++) for the maximum measured radioactivity; +++: the maximum measured radioactivity; settings: i.v., 7.6 mg, 0.79 mCi
Method: as §3
Similarly 0.3 milliliter of a solution of the complex formed from technetium-99m and 1.1 milligrams of fructose 1,6-diphosphate having a radioactivity of 1.2 mCi were administered to one such monkey weighing 5.1 kilograms. Also 1.5 milliliters of a solution of the complex formed from technetium-99m and 7.6 milligrams of fructose 6-phosphate having a radioactivity of 0.79 mCi were administered to a second such monkey weighing 6.7 kilograms.
as §1, §2

[5] = Appearance of radioactive complex in kidneys and urinary bladder calculated from video tape measurements (FIG. 1), male mongrel dog; format: in vivo; settings: i.v., 3-5 mg, 3.5 mCi, about 45 min
Description: as §1
The appearance in the kidneys and urinary bladder of a male mongrel dog weighing 14.1 kilograms, of the radioactive complex formed from technetium-99m and 3-5 milligrams of fructose 6-phosphate administered intravenously as described above in a 0.5-1.0 milliliter solution prepared as in Example 2 and having a radioactivity of 3.5 mCi, was calculated from video tape measurements by the computer and is plotted in FIG. 1 as the percentage of total radioactivity administered in the form of the radioactive complex versus time after administration. At about 45 minutes after administration, about 60 percent of the total radioactivity administered was concentrated in the urinary bladder, with less than 7 percent of the total dose of the radioactive complex in the kidneys.

[6] = Plasma clearance after intravenous injection, dogs (gamma spectrometer); format: in vivo, dog (male mongrel and female beagle); settings: i.v., four tests
Method: In each case about 0.5-2 milliliters of a solution of the complex having radioactivity of about 1-4 mCi and formed from 0.5-10 milligrams of complexing agent were administered. […] The dogs ranged in weight from 6 to 15 kilograms. Periodically blood samples were removed from the jugular vein of the dogs and collected in vacuum tubes containing the disodium salt of ethylenediamine tetracetic acid and the radioactivity of one milliliter samples of plasma were measured in a gamma spectrometer.
The gamma spectrometer employed was a Model 1185 Gamma Scintillation Spectrometer (Searle Analytic Inc., Des Plaines, Ill.). One milliliter samples of plasma or whole blood were analyzed for technetium-99m, and samples were counted for 1 minute. As determined by the computer, the curve in FIG. 2 and the five other corresponding curves (not shown) from the other tests with the dogs were the best fitting curves passing through the plots of experimentally measured radioactivities.

O=C(O)CNC(=O)c1ccccc1[131I] [131I-o-iodohippurate]
route of excretion ([1]; after intravenous injection): excreted through the kidneys exclusively | clearance model ([1]; in vivo): appears to follow the two-compartment model

complex of technetium-99m and fructose 6-phosphate
Relative distribution of complex: Kidneys ([2]; 1 min): ++ | Relative distribution of complex: Urinary Bladder ([2]; 1 min): + | Relative distribution of complex: Vascular ([2]; 1 min): ++ | Relative distribution of complex: Kidneys ([2]; 30 min): ++ | Relative distribution of complex: Urinary Bladder ([2]; 30 min): ++ | Relative distribution of complex: Vascular ([2]; 30 min): + | Relative distribution of complex: Kidneys ([2]; 60 min): ++ | Relative distribution of complex: Urinary Bladder ([2]; 60 min): +++ | Relative distribution of complex: Vascular ([2]; 60 min): + | Relative distribution of complex: Kidneys ([2]; 120 min): + | Relative distribution of complex: Urinary Bladder ([2]; 120 min): +++ | Relative distribution of complex: Vascular ([2]; 120 min): - | Relative distribution of complex: Kidneys ([2]; 150 min): + | Relative distribution of complex: Urinary Bladder ([2]; 150 min): +++ | Relative distribution of complex: Vascular ([2]; 150 min): - | Relative distribution of complex: Kidneys ([3]; 1 min): ++ | Relative distribution of complex: Urinary Bladder ([3]; 1 min): - | Relative distribution of complex: Vascular ([3]; 1 min): ++ | Relative distribution of complex: Kidneys ([3]; 6 min): ++ | Relative distribution of complex: Urinary Bladder ([3]; 6 min): + | Relative distribution of complex: Vascular ([3]; 6 min): + | Relative distribution of complex: Kidneys ([3]; 25 min): + | Relative distribution of complex: Urinary Bladder ([3]; 25 min): ++ | Relative distribution of complex: Vascular ([3]; 25 min): + | Relative distribution of complex: Kidneys ([3]; 30 min): + | Relative distribution of complex: Urinary Bladder ([3]; 30 min): +++ | Relative distribution of complex: Vascular ([3]; 30 min): + | Relative distribution of complex: Kidneys ([3]; 40 min): + | Relative distribution of complex: Urinary Bladder ([3]; 40 min): +++ | Relative distribution of complex: Vascular ([3]; 40 min): - | Relative distribution of complex: Kidneys ([3]; 50 min): + | Relative distribution of complex: Urinary Bladder ([3]; 50 min): +++ | Relative distribution of complex: Vascular ([3]; 50 min): - | Relative distribution of complex: Kidneys ([3]; 60 min): + | Relative distribution of complex: Urinary Bladder ([3]; 60 min): +++ | Relative distribution of complex: Vascular ([3]; 60 min): - | Relative distribution of complex: Kidneys ([3]; 70 min): + | Relative distribution of complex: Urinary Bladder ([3]; 70 min): +++ | Relative distribution of complex: Vascular ([3]; 70 min): - | Relative distribution of complex: Kidneys ([3]; 80 min): + | Relative distribution of complex: Urinary Bladder ([3]; 80 min): +++ | Relative distribution of complex: Vascular ([3]; 80 min): - | Relative distribution of complex: Kidneys ([3]; 90 min): + | Relative distribution of complex: Urinary Bladder ([3]; 90 min): +++ | Relative distribution of complex: Vascular ([3]; 90 min): - | Relative distribution of complex: Kidneys ([4]; 4 min): ++ | Relative distribution of complex: Urinary Bladder ([4]; 4 min): +++ | Relative distribution of complex: Vascular ([4]; 4 min): + | Relative distribution of complex: Kidneys ([4]; 30 min): ++ | Relative distribution of complex: Urinary Bladder ([4]; 30 min): +++ | Relative distribution of complex: Vascular ([4]; 30 min): + | Relative distribution of complex: Kidneys ([4]; 50 min): + | Relative distribution of complex: Urinary Bladder ([4]; 50 min): +++ | Relative distribution of complex: Vascular ([4]; 50 min): - | Relative distribution of complex: Kidneys ([4]; 65 min): + | Relative distribution of complex: Urinary Bladder ([4]; 65 min): +++ | Relative distribution of complex: Vascular ([4]; 65 min): - | percentage of total dose of the radioactive complex in the kidneys [5]: less than 7% | percentage of total radioactivity administered concentrated in the urinary bladder [5]: about 60% | radioactivity concentrated in any other organ [5]: No measurable radioactivity | improved average half time, distributive phase ([6]; single obviously erroneous measurement eliminated, standard deviation 0.025 hour): 0.072 h | improved average half time, elimination phase ([6]; single obviously erroneous measurement eliminated, standard deviation 0.72 hour): 1.68 h | average half time, distributive phase ([6]; standard deviation 0.023 hour): 0.088 h | average half time, elimination phase ([6]; standard deviation 3.29 hours): 3.98 h
